# Numbered stars: 1 amine (or outer) side, 2 acyl side, 3 side chain; on linkers, the order of the positions; unused ones are H or OH. Square brackets hold non-standard residues; d marks the D form. Peptide text beside a SMILES is read from it. * marks the point of attachment. Biotin = O=C1N[C@H]2[C@H](CS[C@H]2CCCCC(=O)*)N1; Quinoline3carbonyl = O=C(c1cnc2ccccc2c1)*; Pyrazinecarbonyl = O=C(c1cnccn1)*; Quinaldoyl = O=C(c1ccc2ccccc2n1)*; Brosyl = O=S(=O)(c1ccc(Br)cc1)*; X15 = O=S(=O)(c1cccc2cccnc12)*; Piperidide = C1CCN(*)CC1; Pyrrolidide = C1CCN(*)C1; Cbz = O=C(OCc1ccccc1)*; NHDecyl = CCCCCCCCCCN*; PhAc = O=C(Cc1ccccc1)*; CO = O=C([*:1])[*:2]; Bz = O=C(c1ccccc1)*; NHPh = c1ccc(N*)cc1; Ahx = NCCCCCC(=O)O; NHBu = CCCCN*
# Molecular target: VLA-4 (Homo sapiens, UniProt P05556+P13612)
# Sequence (P13612 34-1032): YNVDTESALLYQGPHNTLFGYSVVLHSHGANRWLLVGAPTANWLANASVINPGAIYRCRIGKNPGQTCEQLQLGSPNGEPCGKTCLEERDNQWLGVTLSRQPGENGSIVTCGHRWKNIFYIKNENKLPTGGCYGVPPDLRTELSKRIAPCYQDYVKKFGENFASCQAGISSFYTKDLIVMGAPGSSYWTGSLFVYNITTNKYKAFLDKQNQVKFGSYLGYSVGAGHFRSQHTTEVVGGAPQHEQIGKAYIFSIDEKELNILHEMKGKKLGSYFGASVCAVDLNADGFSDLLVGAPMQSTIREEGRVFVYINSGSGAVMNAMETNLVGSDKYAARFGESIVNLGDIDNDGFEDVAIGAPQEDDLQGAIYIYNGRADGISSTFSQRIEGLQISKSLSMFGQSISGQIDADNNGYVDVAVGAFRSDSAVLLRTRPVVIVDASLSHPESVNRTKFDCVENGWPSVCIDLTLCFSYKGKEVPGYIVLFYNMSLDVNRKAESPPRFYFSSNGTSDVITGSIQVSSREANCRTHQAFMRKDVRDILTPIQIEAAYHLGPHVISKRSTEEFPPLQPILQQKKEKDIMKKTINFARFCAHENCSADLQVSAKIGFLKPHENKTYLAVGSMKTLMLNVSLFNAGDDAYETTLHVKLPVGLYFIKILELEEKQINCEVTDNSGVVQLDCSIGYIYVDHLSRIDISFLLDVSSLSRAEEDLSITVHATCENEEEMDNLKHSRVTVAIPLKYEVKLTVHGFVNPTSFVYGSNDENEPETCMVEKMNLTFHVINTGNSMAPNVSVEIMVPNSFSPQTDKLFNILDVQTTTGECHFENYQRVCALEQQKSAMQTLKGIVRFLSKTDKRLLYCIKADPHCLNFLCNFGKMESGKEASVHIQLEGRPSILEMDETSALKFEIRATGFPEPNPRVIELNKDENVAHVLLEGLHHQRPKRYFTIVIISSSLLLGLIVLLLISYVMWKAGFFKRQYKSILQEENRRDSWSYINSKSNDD
# Sequence (P05556 21-798): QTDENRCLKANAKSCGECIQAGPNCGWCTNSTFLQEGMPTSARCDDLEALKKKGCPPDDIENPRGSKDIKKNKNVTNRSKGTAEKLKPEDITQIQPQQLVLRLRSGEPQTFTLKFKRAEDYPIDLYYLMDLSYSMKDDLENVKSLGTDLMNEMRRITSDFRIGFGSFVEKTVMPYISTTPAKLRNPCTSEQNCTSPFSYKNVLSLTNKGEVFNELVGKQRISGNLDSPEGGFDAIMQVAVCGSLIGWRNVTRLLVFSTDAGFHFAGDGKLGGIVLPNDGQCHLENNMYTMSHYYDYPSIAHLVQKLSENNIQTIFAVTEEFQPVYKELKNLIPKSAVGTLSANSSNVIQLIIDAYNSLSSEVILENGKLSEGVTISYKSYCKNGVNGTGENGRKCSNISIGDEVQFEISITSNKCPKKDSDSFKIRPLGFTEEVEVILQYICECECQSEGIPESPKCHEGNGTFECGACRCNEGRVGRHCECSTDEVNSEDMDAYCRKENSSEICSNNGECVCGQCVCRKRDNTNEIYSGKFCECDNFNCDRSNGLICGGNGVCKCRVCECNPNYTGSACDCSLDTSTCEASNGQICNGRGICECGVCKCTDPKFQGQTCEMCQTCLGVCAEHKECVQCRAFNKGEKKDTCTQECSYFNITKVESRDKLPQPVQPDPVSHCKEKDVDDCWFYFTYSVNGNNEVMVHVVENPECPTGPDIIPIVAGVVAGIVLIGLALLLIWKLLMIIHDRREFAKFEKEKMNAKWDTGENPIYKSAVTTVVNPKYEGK
# Assay: cell-based
# Assay type: cell-based
# Design: host or cells: Jurkat (human T lymphoblastic line)
# Conditions: not given
# Experimental: Binding inhibition is measured here as a concentration of peptide that inhibits one-half the binding between a standard number of Jurkat cells and a standard amount of CS-1 peptide bound to the surface of a microtiter plate well. Those concentrations are conveniently expressed as IC50 values, smaller numbers indicating a lower concentration required to inhibit 50 percent binding and therefore greater potency. Further specifics of this assay are provided hereinafter.
# Jurkat cells (ATCC TIB 152), a human T lymphoblastic line, labeled with ^51 chromium were used to assay in vitro binding inhibition provided by various peptides discussed herein.
# The plates were prepared as follows: The 25-mer CS-1 peptide (SEQ ID NO:1) dissolved at 0.5-1 μg/ml in a buffer of 0.1M NaHCO3 at pH 9.5 that also contained 10 μg/ml of bovine serum albumin (BSA) or a conjugate of the CS-1 peptide linked to ovalbumin (CS-1-OVA) dissolved at 1-2.5 μg/ml in the same buffer was used as the substrate. Each well of the microtiter plates was coated with 50 μl of substrate or buffer alone for controls. The wells were permitted to dry out completely and were then rinsed twice with PBS at pH 7.4. Non-specific binding sites of each well were then blocked using 200 μl per well of RPMI/1 percent BSA for two hours at room temperature. Both solid phase-affixed substrates provided similar results.
# Jurkat cells (3-5×10^6 cells) were placed into a 15 ml Falcon™ round-bottom tube with a cap. The tube was centrifuged, and the extra medium was then removed.
# Two hundred microliters of a ^51 Cr labeling solution were added to the centrifuged cells and maintained in contact with the cells for 90-120 minutes in a warm room. This procedure typically provides about 50,000-100,000 cpm/well with about 80-100 percent cell viability. Longer contact times provide a greater amount of labeling but lower cell viability.
# The labeled cells are washed with (i) complete medium, (ii) 1 mM EDTA/PBS and then (iii) RPM1/1 percent BSA free of serum components. The cells are centrifuged after each washing. The cells are finally resuspended in serum-free RPMI/1 percent BSA at a concentration of 1×10^6 viable cells/ml, which provides a concentration that is diluted by one-half in the assay.
# Inhibitor peptides are prepared as stock solutions at 20 mg/ml in DMSO in 1.5 ml cryogenic screwcap vials, and were stored at -70° C. Using Flow™ round-bottom or V-bottom microtiter plates, the inhibitor peptides were prepared at twice the assay concentration in RPMI/1 percent BSA at 60 μl well.
# Four initial dilutions were typically used.
# The ^51 Cr-labeled cells (1×10^6 cells at 60 μl/well) were then admixed with the diluted peptide solutions. The admixtures were maintained at room temperature (about 22° C.) for 30 minutes.
# One hundred microliters of each inhibitor peptide/cell admixture were transferred to the substrate-coated wells. This was done in triplicate for each dilution. The resulting plates were incubated for 30 minutes at 37° C. and then washed gently three times with RPMI/1 percent BSA at 200 μl/well. Binding was observed microscopically, particularly after the second wash.
# The bound cells were then lysed by the addition of a 0.5 percent solution of sodium dodecylsulfate in water at 100 μ/l well. The resulting solutions were then processed for counting and calculation of IC50 values following usual procedures. Appropriate positive and negative controls were used with each plate so that the results of separate assays could be normalized and compared.
# The data of Table 1 are so normalized.
row,Structure (SMILES),RELATIVE POTENCY (relative peptide inhibition of VLA-4 binding CS-1)
1,"CC(C)C[C@H](NC(=O)[C@H](Cc1ccccc1)NC(=O)CCCCCNC(=O)CCCC[C@@H]1SC[C@@H]2NC(=O)N[C@@H]21)C(=O)N[C@@H](CC(=O)O)C(=O)N[C@@H](Cc1ccccc1)C(=O)N1CCC[C@@H]1C(N)=O [B Z F L D F p, N-(biotinoyl-ε-aminocaproyl)-Phe-Leu-Asp-Phe-D-Pro-NH2] ({Biotin-Ahx}-FLDF[dP]-NH2)",150
2,CC[C@H](C)[C@H](N)C(=O)N[C@@H](CC(C)C)C(=O)N[C@@H](CC(=O)O)C(=O)N[C@@H](Cc1ccccc1)C(=O)N1CCC[C@@H]1C(N)=O [I L D F p free amine amide] (H-ILDF[dP]-NH2),2
3,CC[C@H](C)[C@H](N)C(=O)N[C@@H](CC(C)C)C(=O)N[C@@H](CC(=O)O)C(=O)N[C@H](C(=O)N1CCC[C@H]1C(=O)N[C@H](C(=O)N[C@@H](CC(C)C)C(=O)N[C@@H](CC(=O)O)C(=O)N[C@H](C(=O)N1CCC[C@H]1C(N)=O)C(C)C)[C@@H](C)CC)C(C)C [I L D V P I L D V P free amine amide] (H-ILDVPILDVP-NH2),2
4,"CC[C@H](C)[C@H](N)C(=O)N[C@@H](CC(C)C)C(=O)N[C@@H](CC(=O)O)C(=O)N[C@H](C(=O)N1CCC[C@H]1C(=O)O)C(C)C [I L D V P free amine free acid, reference compound] (H-ILDVP-OH)",1
5,CC(C)C[C@H](N)C(=O)N[C@@H](CC(=O)O)C(=O)N[C@@H](Cc1ccccc1)C(=O)N1CCCCC1 [L D F Z free amine piperidinamide] (H-Leu-Asp-Phe-Piperidide),0
6,CC(=O)N[C@@H](CC(C)C)C(=O)N[C@@H](CC(=O)O)C(=O)N[C@@H](Cc1ccccc1)C(N)=O [L D F acetyl amide] (Ac-Leu-Asp-Phe-NH2),< 1
7,CC(C)C[C@H](N)C(=O)N[C@@H](CC(=O)O)C(=O)N[C@@H](Cc1ccccc1)C(N)=O [L D F free amine amide] (H-Leu-Asp-Phe-NH2),0
8,"CC(=O)N[C@@H](CC(C)C)C(=O)N[C@@H](CC(=O)O)C(=O)N[C@H](C(N)=O)C(C)C [L D V acetyl amide, reference compound] (Ac-Leu-Asp-Val-NH2)",1
9,"CC(C)C[C@H](N)C(=O)N[C@@H](CC(=O)O)C(=O)N[C@H](C(N)=O)C(C)C [L D V free amine amide, reference compound] (H-Leu-Asp-Val-NH2)",0
10,CC(=O)N[C@@H](CO)C(=O)N[C@@H](Cc1ccccc1)C(=O)N[C@@H](CC(=O)O)C(=O)N[C@@H](Cc1ccccc1)C(=O)N[C@@H](CO)C(N)=O [S F D F S acetyl amide] (Ac-SFDFS-NH2),< 1
11,CC(C)C[C@H](NCc1ccccc1)C(=O)N[C@@H](CC(=O)O)C(=O)N[C@@H](Cc1ccccc1)C(=O)N1CCCCC1 [X L D F Z benzyl piperidinamide],6
12,CC(C)C[C@H](NC(=O)c1cnccn1)C(=O)N[C@@H](CC(=O)O)C(=O)N[C@@H](Cc1ccccc1)C(=O)N1CCC[C@@H]1C(N)=O [X L D F p 2-pyrazinecarbonyl amide] (Pyrazinecarbonyl-LDF[dP]-NH2),9
13,CC(C)C[C@H](NC(=O)c1ccc2ccccc2n1)C(=O)N[C@@H](CC(=O)O)C(=O)N[C@@H](Cc1ccccc1)C(=O)N1CCC[C@@H]1C(N)=O [X L D F p 2-quinolinecarbonyl amide] (Quinaldoyl-LDF[dP]-NH2),4
14,CC(C)C[C@H](NC(=O)c1cnc2ccccc2c1)C(=O)N[C@@H](CC(=O)O)C(=O)N[C@@H](Cc1ccccc1)C(=O)N1CCC[C@@H]1C(N)=O [X L D F p 3-quinolinecarbonyl amide] (Quinoline3carbonyl-LDF[dP]-NH2),56
15,CC(C)C[C@H](NS(=O)(=O)c1ccc(Br)cc1)C(=O)N[C@@H](CC(=O)O)C(=O)N[C@@H](Cc1ccccc1)C(=O)N1CCC[C@@H]1C(N)=O [X L D F p 4-bromophenylsulfonyl amide] (Brosyl-LDF[dP]-NH2),< 1
16,CC(C)C[C@H](NS(=O)(=O)c1cccc2cccnc12)C(=O)N[C@@H](CC(=O)O)C(=O)N[C@@H](Cc1ccccc1)C(=O)N1CCC[C@@H]1C(N)=O [X L D F p 8-quinolinesulfonyl amide] (X15-LDF[dP]-NH2),3
17,CC(C)C[C@H](NC(=O)Nc1ccccc1)C(=O)N[C@@H](CC(=O)O)C(=O)N[C@@H](Cc1ccccc1)C(=O)N1CCC[C@@H]1C(N)=O [X L D F p anilinocarbonyl amide] ({NHPh-CO}-LDF[dP]-NH2),227
18,CC(C)C[C@H](NC(=O)OCc1ccccc1)C(=O)N[C@@H](CC(=O)O)C(=O)N[C@@H](Cc1ccccc1)C(=O)N1CCC[C@@H]1C(N)=O [X L D F p benzyloxycarbonyl amide] (Cbz-LDF[dP]-NH2),34

# Same assay, conditions: normalized IC50 relative to standard peptide of SEQ ID NO:3 (=1); about one-tenth or less of the standard is assigned zero
row,Structure (SMILES),RELATIVE POTENCY (relative peptide inhibition of VLA-4 binding CS-1)
1,"CC(C)C[C@H](NC(=O)[C@H](CC(=O)O)NC(=O)Cc1ccccc1)C(=O)N[C@@H](Cc1ccccc1)C(=O)N1CCC[C@@H]1C(N)=O [X D L F p phenylacetyl amide, N-phenylacetyl-Asp-Leu-Phe-D-Pro-NH2, reference compound] (PhAc-DLF[dP]-NH2)",< 1
2,CCCCCCCCCCNC(=O)[C@@H]1CCCN1C(=O)[C@H](Cc1ccccc1)NC(=O)[C@H](CC(=O)O)NC(=O)[C@H](CC(C)C)NC(=O)Cc1ccccc1 [X L D F P Z phenylacetyl decylamide] (PhAc-LDFP-NHDecyl),2
3,CCCCNC(=O)[C@H](Cc1ccccc1)NC(=O)[C@H](CC(=O)O)NC(=O)[C@H](CC(C)C)NC(=O)Cc1ccccc1 [X L D F Z phenylacetyl n-butylamide] (PhAc-Leu-Asp-Phe-NHBu),3
4,CC(C)C[C@H](NC(=O)Cc1ccccc1)C(=O)N[C@@H](CC(=O)O)C(=O)N[C@@H](Cc1ccccc1)C(=O)N1CCNCC1 [X L D F Z phenylacetyl piperazinamide],506
5,CC(C)C[C@H](NC(=O)Cc1ccccc1)C(=O)N[C@@H](CC(=O)O)C(=O)N[C@@H](Cc1ccccc1)C(=O)N1CCCC1 [X L D F Z phenylacetyl pyrrolidinamide] (PhAc-Leu-Asp-Phe-Pyrrolidide),250
6,CC(C)C[C@H](NC(=O)c1ccccc1)C(=O)N[C@@H](CC(=O)O)C(=O)N[C@@H](Cc1ccccc1)C(=O)N1CCC[C@@H]1C(N)=O [X L D F p benzoyl amide] (Bz-LDF[dP]-NH2),75

# Same assay, conditions: normalized IC50 relative to standard peptide of SEQ ID NO:3 (=1); about one-tenth or less of the standard is assigned zero; listed as Leu-Asp-Val (LDV) N-free amine C-amide
row,Structure (SMILES),RELATIVE POTENCY (relative peptide inhibition of VLA-4 binding CS-1)
1,"CC(C)C[C@H](N)C(=O)N[C@@H](CC(=O)O)C(=O)N[C@H](C(N)=O)C(C)C [L D V free amine amide, reference compound] (H-Leu-Asp-Val-NH2)",zero

# Source: patent US5688913A, “CS-1 peptidomimetics, compositions and methods of using the same” (Cytel Corporation, priority 1995, dated 1997)
